# “And” between values parts separate entries of the source, which are not always exact repeats. Equal entries are not always repeated.
# Legend:
# Apelin receptor = molecular target: T1, Apelin receptor (Homo sapiens, UniProt P35414); assay: Agonist activity at human APJ expressed in HEK293 cells assessed as inhibition of forskolin-stimulated cAMP production; assay type: functional, cell-based
# T1 sequence (P35414 whole entry): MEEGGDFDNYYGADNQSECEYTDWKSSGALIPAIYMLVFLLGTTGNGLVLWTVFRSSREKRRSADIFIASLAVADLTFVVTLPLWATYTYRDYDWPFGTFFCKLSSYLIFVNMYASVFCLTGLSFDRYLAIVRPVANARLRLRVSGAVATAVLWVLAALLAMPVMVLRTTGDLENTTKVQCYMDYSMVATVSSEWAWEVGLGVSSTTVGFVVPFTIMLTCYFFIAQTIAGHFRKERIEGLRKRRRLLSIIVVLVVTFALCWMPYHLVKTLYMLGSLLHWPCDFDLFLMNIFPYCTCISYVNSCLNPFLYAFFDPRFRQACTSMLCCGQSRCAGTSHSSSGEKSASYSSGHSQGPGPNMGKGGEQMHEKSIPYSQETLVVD
# [1] = molecular target: T2, Apelin receptor (Homo sapiens) (UniProt P35414); assay: Agonist activity at human APJ expressed in HEK293 cells assessed as inhibition of forskolin-stimulated cAMP production at 10 uM relative to control; assay type: functional, cell-based
# T2 sequence (whole entry): T1 sequence (P35414 whole entry)
# [2] = Cmax in mouse at 10 mg/kg, po; assay type: ADME, organism-based; parameters: dose 10 mg/kg, route oral; conditions: in vivo
# [3] = Permeability of compound at pH 5.5 by PAMPA assay; assay type: ADME; conditions: read-out: permeability
# [4] = molecular target: Voltage-gated inwardly rectifying potassium channel KCNH2 (Homo sapiens, UniProt Q12809); assay: Inhibition of human ERG
# Voltage-gated inwardly rectifying potassium channel KCNH2, sequence (Q12809 whole entry): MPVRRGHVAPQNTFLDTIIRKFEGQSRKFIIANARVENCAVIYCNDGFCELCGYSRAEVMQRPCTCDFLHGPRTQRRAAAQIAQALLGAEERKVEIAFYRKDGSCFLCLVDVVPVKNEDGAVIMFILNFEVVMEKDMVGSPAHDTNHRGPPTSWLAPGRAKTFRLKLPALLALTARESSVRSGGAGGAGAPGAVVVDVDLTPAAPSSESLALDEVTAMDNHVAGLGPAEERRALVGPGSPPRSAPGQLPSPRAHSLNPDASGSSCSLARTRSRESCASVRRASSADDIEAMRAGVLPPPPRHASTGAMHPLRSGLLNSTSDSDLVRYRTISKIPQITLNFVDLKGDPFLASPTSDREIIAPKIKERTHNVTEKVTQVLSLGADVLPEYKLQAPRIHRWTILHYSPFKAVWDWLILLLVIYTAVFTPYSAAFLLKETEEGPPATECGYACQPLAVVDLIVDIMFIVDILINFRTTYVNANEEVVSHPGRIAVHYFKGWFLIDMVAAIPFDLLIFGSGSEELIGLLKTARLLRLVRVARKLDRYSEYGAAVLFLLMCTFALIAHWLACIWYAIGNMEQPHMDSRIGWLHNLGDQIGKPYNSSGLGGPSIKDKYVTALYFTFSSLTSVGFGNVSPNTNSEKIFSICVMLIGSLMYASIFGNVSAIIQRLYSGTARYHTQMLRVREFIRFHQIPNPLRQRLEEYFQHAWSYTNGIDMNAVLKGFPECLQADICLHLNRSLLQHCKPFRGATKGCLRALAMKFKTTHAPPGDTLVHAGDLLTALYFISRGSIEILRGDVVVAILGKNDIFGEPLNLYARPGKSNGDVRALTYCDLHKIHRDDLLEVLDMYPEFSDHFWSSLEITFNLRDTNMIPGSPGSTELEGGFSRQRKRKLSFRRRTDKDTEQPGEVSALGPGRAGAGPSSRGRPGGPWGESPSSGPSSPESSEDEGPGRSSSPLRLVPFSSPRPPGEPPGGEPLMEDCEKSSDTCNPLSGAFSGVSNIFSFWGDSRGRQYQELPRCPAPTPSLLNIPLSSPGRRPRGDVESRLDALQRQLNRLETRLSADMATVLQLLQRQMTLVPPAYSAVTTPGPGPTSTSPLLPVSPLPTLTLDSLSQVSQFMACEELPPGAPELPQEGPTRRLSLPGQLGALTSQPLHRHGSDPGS
# [5] = Permeability of compound at pH 7.4 by PAMPA assay; assay type: ADME; conditions: read-out: permeability
# [6] = molecular target: T3, Nuclear receptor subfamily 1 group I member 2 (Homo sapiens, UniProt O75469); assay: Agonist activity at PXR (unknown origin)
# T3 sequence (O75469 whole entry): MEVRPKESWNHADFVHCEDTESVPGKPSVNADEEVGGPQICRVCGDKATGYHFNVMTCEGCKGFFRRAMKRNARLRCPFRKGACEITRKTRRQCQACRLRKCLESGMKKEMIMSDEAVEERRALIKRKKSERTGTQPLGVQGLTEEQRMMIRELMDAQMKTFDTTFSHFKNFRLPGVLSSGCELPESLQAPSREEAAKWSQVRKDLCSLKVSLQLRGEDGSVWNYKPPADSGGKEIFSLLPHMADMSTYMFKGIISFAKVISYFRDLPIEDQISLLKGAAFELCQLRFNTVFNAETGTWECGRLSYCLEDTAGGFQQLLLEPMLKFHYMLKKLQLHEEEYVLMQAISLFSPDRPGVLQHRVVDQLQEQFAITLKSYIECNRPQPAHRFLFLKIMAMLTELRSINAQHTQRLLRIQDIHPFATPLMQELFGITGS
# [7] = Tmax in mouse at 10 mg/kg, po; assay type: ADME, organism-based; conditions: in vivo
# [8] = molecular target: CYP450 (isoform not stated) (Homo sapiens, UniProt P04798+P05177+P05181+P08684+P10632+P10635+P11509+P11712+P13584+P20813+P20815+P20853+P24462+P24903+P33260+P33261+P51589+P78329+P98187+Q02928+Q08477+Q16678+Q16696+Q5TCH4+Q6VVX0+Q7Z449+Q8TAV3+Q96SQ9+Q9HB55); assay: Inhibition of CYP450 (unknown origin); assay type: ADME, protein assay
# [9] = AUC in mouse at 10 mg/kg, po; assay type: ADME, organism-based; conditions: in vivo
EC50 (Apelin receptor),SMILES,further results
90 nM,CCCSc1nc(=O)cc(O)n1-c1ccccc1C(F)(F)F,–
140 nM,CCCSc1nc(=O)cc(O)n1-c1ccccc1CC,–
23 nM,COc1ccccc1-n1c(O)cc(=O)nc1SC(C)C,–
290 nM,CCCSc1nc(=O)cc(O)n1-c1cccc(C)c1,–
4400 nM,C=CCn1c(O)cc(=O)nc1SC(C)CC (stereo not given),Efficacy [1]: 100%
200 nM,CCCCSc1nc(=O)cc(O)n1-c1ccccc1OC,–
22 nM and 24 nM and 31 nM,CCCCc1nc(=O)cc(O)n1-c1ccccc1OC,–
1400 nM,CCCSc1nc(=O)c(C)c(O)n1-c1ccccc1OC,–
5 nM and 3 nM and 2 nM,CCCCc1nc(=O)cc(O)n1-c1c(C)cccc1OC,Cmax [2]: 1.68 µM; Papp [3]: 1.2 ×10⁻⁶ cm/s; IC50 [4]: > 80 µM; Papp [5]: 1 ×10⁻⁶ cm/s; EC50 [6]: > 14 µM; Tmax [7]: 4 h; IC50 [8]: > 20 µM; AUC [9]: 10.2 µM·h

# More lines, now with the values behind:
SMILES,EC50 (Apelin receptor),further results
CCCCc1c(O)n(-c2ccccc2OC)c(SCCC)nc1=O,1700 nM,–
CCCSc1nc(=O)cc(O)n1-c1ccccc1F,160 nM,–
CCCSc1nc(=O)cc(O)n1-c1ccccc1OCC,100 nM,–
COc1ccccc1-n1c(O)cc(=O)nc1SCC(C)C,78 nM,–
CCCSc1nc(=O)cc(O)n1-c1ccc(C)cc1,260 nM,–
CCCSc1nc(=O)cc(O)n1-c1ccccc1,5000 nM,Efficacy [1]: 100%
CCCSc1nc(=O)cc(O)n1-c1ccccc1C,100 nM,–
CCCSc1nc(=O)cc(O)n1-c1ccc(OC)cc1,680 nM,–
CCCSc1nc(=O)cc(O)n1-c1ccccc1Cl,250 nM,–
CCCSc1nc(=O)cc(O)n1-c1ccccc1OC,64 nM and 40 nM and 160 nM,Cmax [2]: 4.4 µM; Papp [3]: 23 ×10⁻⁶ cm/s; IC50 [4]: > 80 µM; Papp [5]: 13.1 ×10⁻⁶ cm/s; EC50 [6]: > 50 µM; Tmax [7]: 4 h; IC50 [8]: > 20 µM; AUC [9]: 29 µM·h
CCCSc1nc(=O)cc(O)n1-c1cccc(OC)c1,940 nM,–
CCCCc1nc(=O)cc(O)n1-c1c(OC)cccc1OC,11 nM,–
C=CCc1c(O)n(-c2ccccc2OC)c(SCCC)nc1=O,570 nM,–
CCCCc1nc(=O)c(Cc2ccc(OC)cc2)c(O)n1-c1c(OC)cccc1OC,13 nM,–
CCCSc1nc(=O)cc(O)n1-c1ccccc1Br,155 nM,–
CCCSc1nc(=O)c(CC)c(O)n1-c1ccccc1OC,860 nM,–
CCCSc1nc(=O)c(C(C)C)c(O)n1-c1ccccc1OC,450 nM,–
CCCSc1nc(=O)c(Cc2ccccc2)c(O)n1-c1ccccc1OC,340 nM,–
